Results taken from patent US6001880A, “Alkylenediamine derivative, anti-ulcer drug, and antibacterial drug” (Shiseido Co., Ltd., priority 1997, dated 1999).

Experiments:
[1] = system: stress ulcer formation in rats; assay: WIS: Restraint and Water Immersion Stress-Induced Ulcer Inhibition Test; type: in vivo, rat (male Crj:SD or Slc:SD); conditions: 100 mg/kg oral, 10 minutes before 7 h restraint and water immersion (21° C.)
How it was run: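 Overnight-fasted male SD rats (6–7 weeks, n=5–8) dosed orally at 100 mg/kg in 0.3% CMC-Na or 0.05% Tween 80; 10 min later restrained and immersed to xiphoid in 21° C water for 7 h. Ulcer index is summed glandular erosion length; inhibition % = (1 − UI sample/UI control).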

[2] = system: isolated gastric fundic gland; assay: CAP: Acid Secretion Inhibition Test In Vitro ([14C]-aminopyrine uptake); type: cell-based, rabbit (male Japanese White); conditions: Oryctolagus cuniculus; final concentration 10^-5 M; histamine 10^-5 M stimulation; read-out: CAP: acid secretion inhibitory rate
How it was run: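 Collagenase-isolated rabbit gastric fundic glands (1.6×10^6 cells/ml) were stimulated with 10^-5 M histamine in the presence of test compound and [14C]-aminopyrine, then shaken 40 min at 37 °C. Pellet versus supernatant radioactivity, corrected with a 20 mM NaSCN sample, gives specific aminopyrine accumulation as the acid-secretion index; duplicates.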

[3] = system: Helicobacter pyroli (HP NCTC 11637); assay: AHP: Antibacterial Activity Test Against Helicobacter pyroli (agar dilution); type: cell-based, Helicobacter pyroli NCTC 11637; conditions: MIC 100 μg/ml or more; colony number vs control plate, 250 mM solution of sample compound
Description: AHP: Antibacterial Activity Test Against Helicobacter pyroli The minimum inhibitory concentration (MIC) against Helicobacter pyroli (microacrophilic gram-negative bacterium which is supposed to deeply involve in pathogenesis, relapse, and recrudescence of ulcer, referred to as "HP" in the following) is measured so as to find out compounds which have antibacterial activity against Helicobacter pyroli. MICs were determined by the agar dilution method. The stock culture (-80° C.) of HP NCTC 11637 was thawed and cultured on tripticase soy agar supplemented with 5% sheep blood at 37° C. in an atmosphere of 5% O2, 10% CO2, and 85% N2. Grown colonies were transferred to the same plate and precultured for 3 days under the same condition. […] An appropriate amount of the colony grown on the plate by preculturing was suspended in Mueller Hinton broth till turbidness was recognizable by naked eyes, thereby yielding a bacterial suspension concentrate containing about 10^7 cfu/ml. […] 10 μl of the bacterial suspension for inoculation (about 10^3 cfu) was dropped by dispenser onto an MIC plate for inoculation and cultured for 7 days under the same condition as that of preculture. Thereafter, it was judged whether there had been bacteria growth or not. […] As the result of the comparison of these plates, when the number of the colony on the plate containing the sample compound was less than 90% with respect to that on the control plate, it was represented by "+". Contrary to this, when there was 90% or more, it was represented by "-".

mice = system: mice; design: species or system mouse (male Slc:ICR); conditions: mouse, in vivo
Description: AT: Single Dose Toxicity Pretest
Male Slc:ICR mice (5-week-old) were used. Each group has 3 to 5 mice and each mouse was fasted, but allowed free access to water, for 4 to 5 hours from 9 a.m. in the test day. Then, 2,000 mg/10 ml/kg of the sample compound dissolved or suspended in an aqueous solution of 0.5% sodium carboxymethyl cellulose was orally administered thereto. To a control, only the vehicle was administered. […] The body weight was measured before and after the fasting as well as at the same time everyday. The dead animals were immediately subjected to autopsy and their organs were observed by naked eyes. Also, the living animals were sacrificed with ether or carbon dioxide one week after the administration and then their organs were observed by naked eyes.
The toxicity at the single dose of 2,000 mg/kg of the sample compound was expressed as being classified into 5 levels.
5: mortality rate is 0%; no toxicity is found at all both in behavior and organs.
4: Mortality rate is 0%; while no toxicity is found in organs, slight toxicity is observed in behavior or body weight increase.
3: While there is a dead animal (though not all the animals are dead), no toxicity is found in organs.
2: Regardless of whether there is a dead animal or not, toxicity is found in organs.
1: All the animals are dead.

## CC(C)=CCC/C(C)=C/COc1ccc(C(=O)NCCN(C(C)C)C(C)C)cc1 [Example 7]
[1]
  WIS: ulcer formation inhibitory rate: 84%
[2]
  inhibition at 10 µM: 100%
[3]
  AHP: growth class where MIC was 100 μg/ml or more: + (the number of the colony on the plate containing the sample compound was less than 90% with respect to that on the control plate)
mice
  AT: single dose toxicity level: 5
